Reference: patent US12161631B2, “Liquid pharmaceutical formulation” (PROJECT PHARMACEUTICS GMBH, priority 2018, dated 2024)
Where two headings read alike, the source gives them in different places.

Assays:
[1] = Dose dependent stabilization effect of calcium chloride in PEG400 (Example 8), purity and content by RP-HPLC; details: PEG400/PG and PEG400/ethanol solvent mixtures; 40° C., 8 weeks
Protocol: The organic solvent systems PEG400 with a small amount of alcoholic solvents 1,2-propanediol or ethanol (10% w/w) are to be investigated.
The following Bendamustine containing compositions were prepared. […] The preparations were filled into type 1 glass vials and stoppered with nitrogen overlay. The closed vials were stored at 40° C.:
The purity of Bendamustine-HCl was assessed via RP-HPLC and expressed by relative main peak area. Measurements were carried out in duplicate.
The content of Bendamustine-HCl was assessed via RP-HPLC using a 25 mg/g Bendamustine-HCl standard as reference. Standard solutions were freshly prepared for each individual sampling time point. Standard curves were recorded in duplicate at the beginning and at the end of each sequence. Samples were analyzed in duplicate.

[2] = formulation CaCl2 99.9 mg | PG ad 1000 mg
Protocol: The purity of Bendamustine hydrochloride and quantity was determined as follows using a standard curve: • Column type: C18, 100×4.6 mm, 2.6 μm • Mobile phase: A: Water/ACN/TFA=950/50/1 v/v/v • B: Water/ACN/TFA=50/950/1 v/v/v • Column temperature: 25° C. • Autosampler temperature: 25° C. • Flow rate: 1.2 mL/min • Detection wavelength: 234 nm HPLC Gradient
To serve as a direct reference, Bendamustine-HCl was also included in the study.
The following compositions were prepared, filled into type 1 glass vials, closed with a rubber stopper and crimp caped. The closed vials were stored at a temperature of 40° C.
At defined time points samples were taken and analyzed be mans of the RP-HPLC method described in Example 1.

[3] = type: physicochemical; details: in propylene glycol and in PEG400/PG solvent mixture
Protocol: The following Bendamustine containing compositions (25 mg Bendamustine/HCl in 4 g solution) were prepared, filled into type 1 glass vials.

[4] = Stabilizer solubility study (Example 2); type: physicochemical; details: dissolved at 40° C., stored at 2° C.-5° C. over-night
Protocol: The solubility of potential stabilizers to be tested for Bendamustine-HCl liquid formulation was evaluated in polypropylene glycol. The respective chemical was dissolved in water under continuous stirring at 40° C.

Row | SMILES | Purity at 40° C. as relative main peak area [%] by RP-HPLC ([2]; 0 days) | Rel. content at 40° C. determined by RP-HPLC using a calibration curve ([2]; 0 days (ref. T=0)) | Purity at 40° C. as relative main peak area [%] by RP-HPLC ([2]; 7 days) | Rel. content at 40° C. determined by RP-HPLC using a calibration curve ([2]; 7 days (ref. T=0)) | Purity at 40° C. as relative main peak area [%] by RP-HPLC ([2]; 14 days) | Rel. content at 40° C. determined by RP-HPLC using a calibration curve ([2]; 14 days (ref. T=0)) | Purity at 40° C. as relative main peak area [%] by RP-HPLC ([2]; 28 days) | Rel. content at 40° C. determined by RP-HPLC using a calibration curve ([2]; 28 days (ref. T=0)) | further results
1 | [Ca+2].[Cl-].[Cl-] [CaCl2, calcium chloride] |  |  |  |  |  |  |  |  | stabilizing effect on Bendamustine (discussion, in words) [1]: clear dose depending stabilizing effect
2 | O=NN(CCCl)C(=O)NCCCl [Carmustine] | 95.8% | 100% | 2.1% | 3.6% | 2.0% | 1.3% | 1.9% | 1.3% | 
3 | N[C@@H](Cc1ccc(N(CCCl)CCCl)cc1)C(=O)O [Melphalan] | 99.8% | 100% | 98.1% | 84.6% | 97.4% | 86.2% | 95.4% | 86.5% | 
4 | Nc1ncn([C@@H]2O[C@H](CO)[C@@H](O)[C@H]2O)c(=O)n1 [Azacitidine] | 100% |  | 99.8% |  | 97.7% |  | 0.0% |  | 
5 | CC(=O)[O-].[K+] [KAc] |  |  |  |  |  |  |  |  | stabilizing effect on Bendamustine (conclusion) [3]: no significant stabilizing effect
6 | Cn1c(CCCC(=O)O)nc2cc(N(CCCl)CCCl)ccc21 [Bendamustine] | 99.7% | 100% | 98.9% | 98.9% | 98.4% | 98.4% |  | 95.3% | 
7 | C[N+](C)(C)CCO.[Cl-] [Choline-HCl, choline chloride] |  |  |  |  |  |  |  |  | Outcome (stabilizer solubility) ([4]; target concentration 1.8 mol/kg): Complete dissolution
8 | [Br-].[Br-].[Ca+2] [CaBr2] |  |  |  |  |  |  |  |  | Outcome (stabilizer solubility) ([4]; target concentration 0.9 mol/kg): Complete dissolution
